The source of these data is patent US20260176320A1, “MODULATORS OF G-PROTEIN COUPLED RECEPTORS” (priority 2018, published 2026).

What is called Emax is the maximal effect, on the per cent scale that the assay sets.

Molecules are shown by their SMILES. Read-outs that look alike come from different tables or passages of the source.

For one assay, the target named is T1, GIP-R (Homo sapiens, UniProt P48546).
T1 sequence (P48546 22-466): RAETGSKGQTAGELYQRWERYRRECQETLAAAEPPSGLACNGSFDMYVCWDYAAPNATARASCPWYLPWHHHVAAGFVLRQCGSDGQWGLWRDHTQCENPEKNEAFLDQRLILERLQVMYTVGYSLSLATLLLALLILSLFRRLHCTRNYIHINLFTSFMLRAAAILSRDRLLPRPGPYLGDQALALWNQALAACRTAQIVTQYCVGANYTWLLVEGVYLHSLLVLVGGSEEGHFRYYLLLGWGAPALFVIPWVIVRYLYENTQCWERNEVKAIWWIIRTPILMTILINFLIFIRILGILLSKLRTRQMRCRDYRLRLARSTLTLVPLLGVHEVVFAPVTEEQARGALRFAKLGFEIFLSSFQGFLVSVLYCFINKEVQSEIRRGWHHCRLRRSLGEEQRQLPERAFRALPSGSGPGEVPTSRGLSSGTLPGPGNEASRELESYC
Put plainly: HitHunter cAMP assay (GIP-R). In kind it is cell-based. Conditions: cAMP; for Emax: read-out: (Emax) GIP-R. The essentials: (§1)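 Suspension cells (10,000/well) in HBSS with 10 mM HEPES, 625 μM IBMX, 0.2% BSA exposed to 22-point 2-fold agonist series in duplicate for 30 min at room temperature. cAMP measured by antibody immunocompetition with overnight development, luminescence read-out.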
(cAMP levels reflect the balance of adenylyl cyclase and phosphodiesterase activity.)

Assay [1] addresses T2, GLP-1R (Homo sapiens, UniProt P43220). Put plainly: HitHunter cAMP assay (GLP-1R). In kind it is cell-based. Conditions: cAMP; for Emax: read-out: (Emax) GLP-1R. A digest of the protocol:
as §1

The target of assay [2] is T2, GLP-1R. The assay is described as follows: PathHunter β-arrestin assay. Format: cell-based. The essentials: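 Cells (5,000/well) plated overnight, then exposed to a 22-point 2-fold agonist dilution series in medium with 0.2% BSA for 90 min at 37 °C, 5% CO2. PathHunter detection reagent added; after 3 h at room temperature in the dark, luminescence read.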
The next assay relates to mice. The assay is described as follows: Glucose tolerance test (GTT). In kind it is in vivo, mouse. Conditions: 24 h GTT, s.c., percent of vehicle. A digest of the protocol: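 Compounds diluted in PBS from 1 mM DMSO stocks and given subcutaneously 15 min (5-6 h fast), 4 h (16 h overnight fast), 16 h or 24 h before intraperitoneal glucose (2 g/kg). Tail blood glucose read at 10–120 min post-glucose, at least 6 mice per time-point. Glucose AUC over time determined.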

Where [3] appears, read: Table 3, read-out: EC50 GIP-R/nM.
Where [4] appears, read: Table 3A, read-out: EC50 GIP-R/nM.
[5] abbreviates: Table 3, read-out: EC50 GLP-1R/nM.
[6] abbreviates: Table 3A, read-out: EC50 GLP-1R/nM.
Setting [7] is: PathHunter β-arrestin assay, read-out: β-arrestin activity EC50.

T2 sequence (P43220 24-463): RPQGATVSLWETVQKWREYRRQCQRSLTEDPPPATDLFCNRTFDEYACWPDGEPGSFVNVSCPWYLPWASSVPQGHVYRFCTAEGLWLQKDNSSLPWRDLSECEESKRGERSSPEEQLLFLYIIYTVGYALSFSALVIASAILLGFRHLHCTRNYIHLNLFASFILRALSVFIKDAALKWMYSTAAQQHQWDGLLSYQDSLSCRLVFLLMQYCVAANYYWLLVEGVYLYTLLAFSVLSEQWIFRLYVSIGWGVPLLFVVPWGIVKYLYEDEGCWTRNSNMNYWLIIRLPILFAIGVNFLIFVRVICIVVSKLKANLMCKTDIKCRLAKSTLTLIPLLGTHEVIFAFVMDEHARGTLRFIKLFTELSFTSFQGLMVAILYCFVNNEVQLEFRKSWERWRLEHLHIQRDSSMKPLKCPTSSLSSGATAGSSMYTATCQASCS

Turning to `CCCCCCCCCCCCCCCC(=O)N[C@@H](CCC(=O)NCCCC[C@H](NC(=O)[C@H](CO)NC(=O)[C@@H]1CCCN1C(=O)[C@@H]1CCCN1C(=O)[C@@H]1CCCN1C(=O)[C@H](C)NC(=O)CNC(=O)[C@H](CO)NC(=O)[C@H](CO)NC(=O)[C@@H]1CCCN1C(=O)CNC(=O)CNC(=O)[C@H](C)NC(=O)[C@H](CC(C)C)NC(=O)[C@H](CC(C)C)NC(=O)[C@H](Cc1c[nH]c2ccccc12)NC(=O)[C@H](CC(N)=O)NC(=O)[C@@H](NC(=O)[C@H](Cc1ccccc1)NC(=O)[C@H](CCC(=O)O)NC(=O)C(C)(C)NC(=O)[C@H](C)NC(=O)[C@H](C)NC(=O)[C@H](CCC(N)=O)NC(=O)[C@H](CCCCN)NC(=O)[C@H](CC(=O)O)NC(=O)[C@H](CC(C)C)NC(=O)[C@H](Cc1ccc(O)cc1)NC(=O)[C@@H](NC(=O)[C@H](CO)NC(=O)[C@H](Cc1ccc(O)cc1)NC(=O)[C@H](CC(=O)O)NC(=O)[C@H](CO)NC(=O)[C@@H](NC(=O)[C@H](Cc1ccccc1)NC(=O)[C@@H](NC(=O)CNC(=O)[C@H](CCC(=O)O)NC(=O)CSCC(=O)NCCN1CC[C@H](O)C1=O)[C@@H](C)O)[C@@H](C)O)[C@@H](C)CC)C(C)C)C(N)=O)C(=O)O` [Compound 66], the Emax amounted to 11% on GIP-R (Table 3), 11% on GIP-R (Table 3A), 113% at GLP-1R [1] (Table 3) and 113% on GLP-1R [1] (Table 3A). For the same compound, the EC50 at GIP-R (setting [3]) was 1 to 10 nM; on GIP-R (setting [4]) it was 100 to 1000 nM; on GLP-1R [1] (setting [5]), less than 0.1 nM; at GLP-1R [1] (setting [6]), less than 0.1 nM; on GLP-1R [2] (setting [7]), greater than 1000 nM. For the same compound, the AUC score with mice (dose range 2-5 nmol/kg) was 2 (AUC score 2 = 26-50%).

On to `CCCCCCCCCCCCCCCC(=O)N[C@@H](CCC(=O)NCCCC[C@H](NC(=O)[C@H](CO)NC(=O)[C@@H]1CCCN1C(=O)[C@@H]1CCCN1C(=O)[C@@H]1CCCN1C(=O)[C@H](C)NC(=O)CNC(=O)[C@H](CO)NC(=O)[C@H](CO)NC(=O)[C@@H]1CCCN1C(=O)CNC(=O)CNC(=O)[C@H](C)NC(=O)[C@H](CC(C)C)NC(=O)[C@H](CC(C)C)NC(=O)[C@H](Cc1c[nH]c2ccccc12)NC(=O)[C@H](CC(N)=O)NC(=O)[C@@H](NC(=O)[C@H](Cc1ccccc1)NC(=O)[C@H](CCC(=O)O)NC(=O)C(C)(C)NC(=O)[C@H](C)NC(=O)[C@H](C)NC(=O)[C@H](CCC(N)=O)NC(=O)[C@H](CCCCN)NC(=O)[C@H](CC(=O)O)NC(=O)[C@H](CC(C)C)NC(=O)[C@H](Cc1ccc(O)cc1)NC(=O)[C@@H](NC(=O)[C@H](CO)NC(=O)[C@H](Cc1ccc(O)cc1)NC(=O)[C@H](CC(=O)O)NC(=O)[C@H](CO)NC(=O)[C@@H](NC(=O)[C@H](Cc1ccccc1)NC(=O)[C@@H](NC(=O)CNC(=O)[C@H](CCC(=O)O)NC(=O)CSCC(=O)NCCN1C(=O)C(C)=C(C)C1=O)[C@@H](C)O)[C@@H](C)O)[C@@H](C)CC)C(C)C)C(N)=O)C(=O)O` [Compound 77], for which the EC50 is 0.1 to 1 nM on GIP-R (EC50 GIP-R/nM, Table 3); 0.1 to 1 nM on GIP-R (EC50 GIP-R/nM, Table 3A); 0.1 to 1 nM on GLP-1R [1] (EC50 GLP-1R/nM, Table 3); 0.1 to 1 nM on GLP-1R [1] (EC50 GLP-1R/nM, Table 3A); greater than 1000 nM on GLP-1R [2]. For the same compound, the Emax came to 82% on GIP-R (Table 3), 82% at GIP-R (Table 3A), 90% at GLP-1R [1] (Table 3) and 90% on GLP-1R [1] (Table 3A). Moreover, the AUC score in the assay with mice (dose range 5.1-15 nmol/kg) is on record as 2 (AUC score 2 = 26-50%).

Regarding `CCCCCCCCCCCCCCCC(=O)N[C@@H](CCC(=O)NCCCC[C@H](NC(=O)[C@H](CO)NC(=O)[C@@H]1CCCN1C(=O)[C@@H]1CCCN1C(=O)[C@@H]1CCCN1C(=O)[C@H](C)NC(=O)CNC(=O)[C@H](CO)NC(=O)[C@H](CO)NC(=O)[C@@H]1CCCN1C(=O)CNC(=O)CNC(=O)[C@H](C)NC(=O)[C@H](CC(C)C)NC(=O)[C@H](CC(C)C)NC(=O)[C@H](Cc1c[nH]c2ccccc12)NC(=O)[C@H](CC(N)=O)NC(=O)[C@@H](NC(=O)[C@H](Cc1ccccc1)NC(=O)[C@H](CCC(=O)O)NC(=O)C(C)(C)NC(=O)[C@H](C)NC(=O)[C@H](C)NC(=O)[C@H](CCC(N)=O)NC(=O)[C@H](CCCCN)NC(=O)[C@H](CC(=O)O)NC(=O)[C@H](CC(C)C)NC(=O)[C@H](Cc1ccc(O)cc1)NC(=O)[C@@H](NC(=O)[C@H](CO)NC(=O)[C@H](Cc1ccc(O)cc1)NC(=O)[C@H](CC(=O)O)NC(=O)[C@H](CO)NC(=O)[C@@H](NC(=O)[C@H](Cc1ccccc1)NC(=O)[C@@H](NC(=O)CNC(=O)[C@H](CCC(=O)O)NC(=O)CSCC(=O)NCCN1C(=O)C[C@@H](O)C1=O)[C@@H](C)O)[C@@H](C)O)[C@@H](C)CC)C(C)C)C(N)=O)C(=O)O` [Compound 79], the EC50 at GIP-R (EC50 GIP-R/nM, Table 3) is 0.1 to 1 nM; at GIP-R (EC50 GIP-R/nM, Table 3A), 0.1 to 1 nM; on GLP-1R [1] (EC50 GLP-1R/nM, Table 3), 0.1 to 1 nM; at GLP-1R [1] (EC50 GLP-1R/nM, Table 3A) it was 0.1 to 1 nM; at GLP-1R [2], greater than 1000 nM. Further, the maximal effect (Emax) on GIP-R (Table 3) is 77%; on GIP-R (Table 3A), 77%; on GLP-1R [1] (Table 3) it was 102%; at GLP-1R [1] (Table 3A), 102%. Besides, the AUC score in the assay with mice (dose range 5.1-15 nmol/kg) is given as 2 (AUC score 2 = 26-50%).

With `CCCCCCCCCCCCCCCC(=O)N[C@@H](CCC(=O)NCCCC[C@H](NC(=O)[C@H](CO)NC(=O)[C@@H]1CCCN1C(=O)[C@@H]1CCCN1C(=O)[C@@H]1CCCN1C(=O)[C@H](C)NC(=O)CNC(=O)[C@H](CO)NC(=O)[C@H](CO)NC(=O)[C@@H]1CCCN1C(=O)CNC(=O)CNC(=O)[C@H](C)NC(=O)[C@H](CC(C)C)NC(=O)[C@H](CC(C)C)NC(=O)[C@H](Cc1c[nH]c2ccccc12)NC(=O)[C@H](CC(N)=O)NC(=O)[C@@H](NC(=O)[C@H](Cc1ccccc1)NC(=O)[C@H](CCC(=O)O)NC(=O)C(C)(C)NC(=O)[C@H](C)NC(=O)[C@H](C)NC(=O)[C@H](CCC(N)=O)NC(=O)[C@H](CCCCN)NC(=O)[C@H](CC(=O)O)NC(=O)[C@H](CC(C)C)NC(=O)[C@H](Cc1ccc(O)cc1)NC(=O)[C@@H](NC(=O)[C@H](CO)NC(=O)[C@H](Cc1ccc(O)cc1)NC(=O)[C@H](CC(=O)O)NC(=O)[C@H](CO)NC(=O)[C@@H](NC(=O)[C@H](Cc1ccccc1)NC(=O)[C@@H](NC(=O)CNC(=O)[C@H](CCC(=O)O)NC(=O)CSCC(=O)NCCN1C(=O)CCC(C)(C)C1=O)[C@@H](C)O)[C@@H](C)O)[C@@H](C)CC)C(C)C)C(N)=O)C(=O)O` [Compound 81], the EC50 on GIP-R (EC50 GIP-R/nM, Table 3) is 0.1 to 1 nM; at GIP-R (EC50 GIP-R/nM, Table 3A), 0.1 to 1 nM; on GLP-1R [1] (EC50 GLP-1R/nM, Table 3), 0.1 to 1 nM; at GLP-1R [1] (EC50 GLP-1R/nM, Table 3A), 0.1 to 1 nM; at GLP-1R [2] it was greater than 1000 nM. Moreover, the Emax at GIP-R (Table 3) amounted to 89%; at GIP-R (Table 3A), 89%; at GLP-1R [1] (Table 3), 96%; on GLP-1R [1] (Table 3A) it was 96%. In addition, the AUC score in the assay on mice (dose range 2-5 nmol/kg) was 3 (AUC score 3 = 51-75%).

For `CCCCCCCCCCCCCCCC(=O)N[C@@H](CCC(=O)NCCCC[C@H](NC(=O)[C@H](CO)NC(=O)[C@@H]1CCCN1C(=O)[C@@H]1CCCN1C(=O)[C@@H]1CCCN1C(=O)[C@H](C)NC(=O)CNC(=O)[C@H](CO)NC(=O)[C@H](CO)NC(=O)[C@@H]1CCCN1C(=O)CNC(=O)CNC(=O)[C@H](C)NC(=O)[C@H](CC(C)C)NC(=O)[C@H](CC(C)C)NC(=O)[C@H](Cc1c[nH]c2ccccc12)NC(=O)[C@H](CC(N)=O)NC(=O)[C@@H](NC(=O)[C@H](Cc1ccccc1)NC(=O)[C@H](CCC(=O)O)NC(=O)C(C)(C)NC(=O)[C@H](C)NC(=O)[C@H](C)NC(=O)[C@H](CCC(N)=O)NC(=O)[C@H](CCCCN)NC(=O)[C@H](CC(=O)O)NC(=O)[C@H](CC(C)C)NC(=O)[C@H](Cc1ccc(O)cc1)NC(=O)[C@@H](NC(=O)[C@H](CO)NC(=O)[C@H](Cc1ccc(O)cc1)NC(=O)[C@H](CC(=O)O)NC(=O)[C@H](CO)NC(=O)[C@@H](NC(=O)[C@H](Cc1ccccc1)NC(=O)[C@@H](NC(=O)CNC(=O)[C@H](CCC(=O)O)NC(=O)CSCC(=O)NCCN1CCCC1=O)[C@@H](C)O)[C@@H](C)O)[C@@H](C)CC)C(C)C)C(N)=O)C(=O)O` [Compound 83], the Emax at GIP-R (Table 3) turned out to be 73%; on GIP-R (Table 3A), 73%; at GLP-1R [1] (Table 3), 106%; at GLP-1R [1] (Table 3A) it was 106%. The EC50 was 1 to 10 nM at GIP-R (setting [3]); 1 to 10 nM at GIP-R (setting [4]); 0.1 to 1 nM at GLP-1R [1] (setting [5]); 0.1 to 1 nM on GLP-1R [1] (setting [6]); greater than 1000 nM at GLP-1R [2] (setting [7]). For the same compound, in the assay with mice (dose range 2-5 nmol/kg), the AUC score was 2 (AUC score 2 = 26-50%).
